Experimental data: patent publication US11248229B2, “Inhibition of KMT2D for the treatment of cancer” (MEMORIAL SLOAN-KETTERING CANCER CENTER, priority 2016, dated 2022)

Assays:
[1] = test system: breast tumor samples from patients; assay: ATAC-seq of paired breast tumor biopsies from patients treated with BYL719; assay type: in vivo, human; settings: paired tumor biopsies prior to therapy and on-therapy
From the text: Starting from fastq files containing ATAC-seq paired-end reads, sequencing adaptors were removed using Trimmomatic^34. Trimmed reads were mapped to the hg19 human genome using Bowtie2^35 allowing at most 1 seed mismatch and keeping only uniquely aligned reads. Duplicates were removed using Picard (http://picard.sourceforge.net). For peak-calling the read start sites were adjusted (reads aligning to the +/−strand were offset by +4 bp/−5 bp, respectively) to represent the center of the transposon binding-event, as described in Buenrostro et al.^21 For each samples, ATAC-seq was run on two biological replicates. Peak calling was performed on each condition individually by pooling reads from biological replicates and using MACS2^36 with a permissive P-value threshold (−p 1e−2). To find a set of peaks that are reproducible across the two biological replicates of a given cell condition, we calculated the per-replicate P-value of each peak using only the read count at the peak from the individual replicate and estimated the irreproducible discovery rate (IDR)^37 from the two sets of P-values that the replicates produced. […] Differentially accessible peaks from this atlas were identified with edgeR^38 by counting all read ends overlapping peaks in each condition. edgeR was run with default settings, a fold-change threshold of 2 and FDR <0.01. […]

[2] = test system: MCF7 xenografts; assay: MCF7 inducible shRNA in vivo xenograft; parameters: species or system athymic Foxn1nu mice
Experimental: Animals were maintained based on the institutional guidelines of Memorial Sloan Kettering Cancer Center (Protocol number 12-10-019). 6×10^6 MCF7 cells in 1:1 DF12 media/Matrigel (Corning) were injected subcutaneously into four to six week old female athymic Foxn1^nu mice. Mice were randomized when tumors reached ˜[…] of volume. 5 mice, 10 tumors were then treated with BYL719 (25 mg×kg^−1 in 0.5%) in carboxymethylcellulose (Sigma) daily for the indicated times. Tumors were collected at the end of the experiments, two to four hours after the last treatment.
Two way t-tests were performed using GraphPad Prism (GraphPad Software), P-values are indicated in the respective graphs. All cellular experiments were repeated at least three times. The in vivo experiments contained 10 tumors for each treatment arm and the sample size was chosen to reflect a difference in means of 20% with a power of 90%. Before the commencement of the in vivo experiments, animals were measured and randomized in groups with similar average tumor volume. Bioinformatics statistics are indicated in the respective method descriptions.

[3] = test system: ER-dependent genes in T47D and MCF7 cells; assay: RT-qPCR of ER-dependent genes in hormone depleted cells; assay type: cell-based, human; settings: cells treated with BYL719 (1 μM) for 24 h
From the text: All cell lines were obtained from ATCC and used at low passages. T47D cells were maintained in RPMI 1640 with 10% FBS, 1% L-glutamine and 1% penicillin-streptomycin. MCF7 cells were maintained in DF-12 DMEM Dulbecco medium with 10% FBS, 1% L-glutamine and 1% penicillin-streptomycin. HEK 293T cells were maintained in DMEM Dulbecco medium supplemented with 10% FBS, 1% L-glutamine and 1% penicillin-streptomycin. For RNA analysis, MCF7 cells or T47D cells underwent hormonal starvation. MCF7 and T47D were cultured for 3 days in phenol-red-free DF12 DMEM and phenol-red-free RPMI respectively, media was supplemented with 5% charcoal/dextran-treated FCS. Cells were induced with E2 (100 nM), BYL719 (1 μM) or vehicle (DMSO) for 24 hours.
Total RNA was extracted from patient biopsies tissue using TRIzol (Life Technologies) and treated with DNAse before cDNA synthesis. cDNA synthesis was performed using the Bio-Rad cDNA synthesis kit according to the manufacturer's instructions. RNA was isolated from cells using the QIAGEN RNeasy kit. The qPCR SYBR green mix (Applied Biosystems) was used to amplify specific cDNA fragments with the oligonucleotides listed in Extended figure using the ViiA™ Real Time PCR system (Applied Biosystems). The data were analyzed by the change-in-threshold (2^−ΔΔCT) method using Actin or GAPDH as a housekeeping genes to obtain relative RNA expression. […]

[4] = test system: T47D and MCF7 cells; assay: MTT cell viability assay; assay type: cell-based, human; settings: BYL719 for 5 days
From the text: When indicated, MCF7 or T47D cells were transduced with lentiviruses expressing empty vector (pLKO. 1) or an shRNA against KMT2D (pLKO. 1) (disclosed in Table 1) or shRNA against FOXA1, shFOXA1 #1 TRCN0000014882; shFOXA1 #2: TRCN0000014880; or shRNA against PBX1, shPBX1 #1: TRCN0000020390; shPBX1 #2: TRCN0000020391). When indicated, MCF7 cells were transduced with pTRIPZ vectors (TRE-RFP-miR30/shRNA-UBC-IRES-PURO) targeting PBX1 or FOXA1 knockdown upon doxycycline administration. When indicated, MCF7 cells were transduced with LT3REPIR (pRRL) vector (T3G-dsRED-mirE/shRNA-PGK-PURO-IRES-rtTA3) targeting KMT2D knockdown upon doxycycline administration. For lentiviral production, 293T cells were transfected with pCMV-VSVG, pCMV-dR8.2 and the plasmid of interest using lipofectamine 3000 according to the manufacture's protocol.
BYL719 was obtained from the Stand Up to Cancer (SU2C) pharmacy. BYL719 was dissolved in DMSO for in vitro experiments. The MTT assay was used to measure cell viability. Briefly, 5000 cells were seeded in 96 well plates, treated with BYL719 for 5 days and assayed using 0.25% MTT (Sigma) and 50 mM sodium succinate (Sigma) for 3 hours. After the formazan crystals were dissolved with DMSO, the absorbance was measured at 570 nm of wavelength. Doxycycline was purchased from Sigma.

[5] = test system: KMT2D; assay: ChIP-qPCR time course for KMT2D, H3K4me1 and H3K4me2 upon BYL719; assay type: cell-based, human; settings: BYL719 (1 μM) for 2, 4, 8, 12 and 24 h
Experimental: (§1) Cells were crosslinked with 1% paraformaldehyde added directly to the culture medium to a final concentration of 1% and incubated at room temperature for 15 minutes. The crosslinked cells were quenched with ice-cold glycine for 5 minutes, washed with PBS and collected. The cells were then lysed with SDS lysis buffer (10 ml of 1% SDS, 10 mM EDTA, 50 mM Tris-HCl, pH 8.1) containing protease and phosphatase inhibitors for 15 minutes prior to sonication. Cells were sonicated in 10-s pulses for a total of 10 min. The sheared chromatin was diluted with ChIP Dilution buffer (0.01% SDS, 1.1% Triton X-100, 1.2 mM EDTA, 16.7 mM Tris-HCl, pH 8.1, 167 mM NaCl) and incubated overnight with Protein G Dynabeads (Thermo Fisher Scientific), which were pre-incubated with specific antibodies. ChIP antibodies to the following proteins were used: FOXA1 (ab5089) Abcam, PBX1 (H00005087-MO1) from Abnova, ER alpha (sc-543) from Santa Cruz and rabbit KMT2D homemade antibody which was generated by Eurogentec (third bleed) and affinity purified against GRARLKSTASSIC peptide (SEQ ID NO: 36). […]

[6] = test system: enhancers or promoters of canonical ER target genes in T47D and MCF7 cells; assay: ChIP-qPCR of ER, FOXA1, PBX1 and H3K4me1/2 occupancy at ER target genes; assay type: cell-based, human; settings: DMSO or BYL719 for 24 h
Experimental: as §1

[7] = test system: T47D cells; assay: ER and FOXA1 ChIP-seq upon BYL719 treatment; assay type: cell-based, human
Experimental: Cells were crosslinked with 1% paraformaldehyde added directly to the culture medium to a final concentration of 1% and incubated at room temperature for 15 minutes. The crosslinked cells were quenched with ice-cold glycine for 5 minutes, washed with PBS and collected. The cells were then lysed with SDS lysis buffer (10 ml of 1% SDS, 10 mM EDTA, 50 mM Tris-HCl, pH 8.1) containing protease and phosphatase inhibitors for 15 minutes prior to sonication. Cells were sonicated in 10-s pulses for a total of 10 min. […]
Paired ends 36 bp sequencing was performed at the Genomics Core of Memorial Sloan Kettering Cancer Center using HiSeq (Illumina). Reads were first processed with Trimmomatic to remove the adaptor sequences and bases with quality scores below 20 and reads with less than 30 remaining bases were discarded^34. Trimmed reads were then aligned to hg19 human genome with the bowtie aligner^35. […] To find a set of peaks that are reproducible across the two biological replicates of a given cell condition, the per-replicate P-value of each peak was calculated using only the read count at the peak from the individual replicate and estimated the irreproducible discovery rate (IDR)^37 from the two sets of P-values that the replicates produced. […]
Differentially accessible peaks from combined atlas were identified with […] by counting all read ends overlapping peaks in each condition. […]

## Cc1nc(NC(=O)N2CCC[C@H]2C(N)=O)sc1-c1ccnc(C(C)(C)C(F)(F)F)c1 [BYL719]
[1]
  chromatin accessibility in regions responsive to PI3K inhibition: increase in chromatin accessibility
[2]; MCF7 inducible shKMT2D xenografts, BYL719 daily 25 mg/kg
  antitumor effect of silencing KMT2D in the presence of BYL719: enhanced
[2]; MCF7 xenografts, inducible shFOXA1, BYL719 daily 25 mg/kg
  anti-tumor activity of BYL719 with FOXA1 silencing: markedly increased the anti-tumor activity
[3]
  expression of ER-dependent genes in the absence of KMT2D: decrease of expression
[4]; ER-positive cell lines
  cell viability, KMT2D knockdown combined with BYL719: greater effect
[4]; constitutive or inducible shRNAs
  viability of cells treated with BYL719 upon FOXA1 and PBX1 silencing: decrease the viability
[5]
  KMT2D recruitment at regulatory regions: peaked at early hours
  abundance of H3K4me1/2 occupying regulatory regions: elevated at the same time points
[6]
  binding of ER, FOXA1 and PBX1 to enhancers or promoters of canonical ER target genes: significantly enhanced
[7]; BYL719 (1 μM) for 24 h
  co-occupancy of ER and FOXA1 at specific target loci: increased co-occupancy of ER and FOXA1
[7]; DMSO or BYL719 for 24 h
  ER binding events (ER ChIP-seq): induced differential ER binding
